The values that follow come from paper PMC11327196, “A phase 1 study to assess the absolute bioavailability, mass balance, pharmacokinetics, metabolism, and excretion of [^14C]-mobocertinib, an oral inhibitor of EGFR exon 20 insertion mutations, in healthy participants” (Investigational New Drugs, 2024).

The test system of data set [1] is EGFRex20ins mutation positive locally advanced or metastatic NSCLC. The arrangement: method as in doi:10.1016/j.annonc.2023.10.586. The following applies: mobocertinib versus chemotherapy, first-line; cited from earlier work.
Data set [2] can be described thus: Period 2: urine PK (renal clearance, urinary recovery). The data set is classed as in vivo, human. The protocol: After a washout of 8–9 days, participants returned to the clinic for Day − 1 of Period 2. On Day 1 of Period 2, after a fast of ≥ 10 h, participants received a single nominal dose of 160 mg (~ 100 µCi; whole body effective dose of 5.3 mrem for a 70-kg human) [^14C]-mobocertinib as a 70 mL oral solution. The actual doses administered ranged from 161 to 163 mg (92.4 to 93.9 µCi). Participants stayed in the clinic from Day − 1 until a discharge criterion (≥ 80% of the total administered radioactive dose was recovered in urine and feces or excretion of radioactivity in urine and feces combined had declined to ≤ 1% of the total administered dose per day for ≥ 2 consecutive intervals) was met, or up to 10 days postdose. To measure the total radioactivity and concentrations of mobocertinib, AP32960, and AP32914 in whole blood and plasma, 4 blood samples were collected predose, and at 0.5, 1, 2, 3, 4, 5, 6, 8, 12, 24, 36, 48, 72, 96, 120, 144, 168, 192, 216, and 240 h postdose; a fifth blood sample was collected for plasma metabolite profiling at predose and 1, 2, 4, 6, 12, 24, 48, 72, 96, 120, and 168 h postdose. Feces and urine were collected predose (feces within 48 h and urine within 24 h prior to dosing), 0–24 h (urine from 0–12 and 12–24 h), and then at 24-hour intervals up to 240 h postdose or until a discharge criterion was met. […] These 2 participants continued with at-home fecal sample collections. […]
Plasma, whole blood, and urine samples were assayed for mobocertinib, AP32960, and AP32914 concentrations using liquid chromatography-tandem mass spectrometry (Q2 Solutions, Ithaca, New York, USA). […] Urine and fecal samples were assayed for total radioactivity following the IV dose of [^14C]-mobocertinib in Period 1, and whole blood, plasma, urine, and fecal samples were assayed for total radioactivity following the oral dose of [^14C]-mobocertinib in Period 2 using liquid scintillation counting (LSC; Celerion, Lincoln, Nebraska, USA; LLOQs: Period 1 urine: 0.115–0.118 ng eq/g, feces: 0.720–0.759 ng eq/g; Period 2 whole blood: 87.3–112 ng eq/g, plasma: 116–132 ng eq/mL, urine: 37.8–46.8 ng eq/g, feces: 110–336 ng eq/g across participants). Urine and fecal samples collected in Period 1 that had total radioactivity concentration equivalents below the LLOQ of the Celerion LSC assay were sent to Pharmaron for measurement by AMS (LLOQ: urine: 0.0000253–0.00111 ng eq/g; feces: 0.000404–0.0278 ng eq/g across participants). […]
PK parameters for analytes in urine and feces were calculated using SAS Version 9.4 and included the cumulative amounts and percentages of the administered radioactive dose excreted as [^14C]-mobocertinib, [^14C]-AP32960, and [^14C]-AP32914 in urine and feces following IV dosing in Period 1 and oral dosing in Period 2. […]

Data set [3] in a line: Period 2: mass balance (total radioactivity in urine and feces). The data set is classed as in vivo, human. The protocol:
After a washout of 8–9 days, participants returned to the clinic for Day − 1 of Period 2. On Day 1 of Period 2, after a fast of ≥ 10 h, participants received a single nominal dose of 160 mg (~ 100 µCi; whole body effective dose of 5.3 mrem for a 70-kg human) [^14C]-mobocertinib as a 70 mL oral solution. The actual doses administered ranged from 161 to 163 mg (92.4 to 93.9 µCi). Participants stayed in the clinic from Day − 1 until a discharge criterion (≥ 80% of the total administered radioactive dose was recovered in urine and feces or excretion of radioactivity in urine and feces combined had declined to ≤ 1% of the total administered dose per day for ≥ 2 consecutive intervals) was met, or up to 10 days postdose. To measure the total radioactivity and concentrations of mobocertinib, AP32960, and AP32914 in whole blood and plasma, 4 blood samples were collected predose, and at 0.5, 1, 2, 3, 4, 5, 6, 8, 12, 24, 36, 48, 72, 96, 120, 144, 168, 192, 216, and 240 h postdose; a fifth blood sample was collected for plasma metabolite profiling at predose and 1, 2, 4, 6, 12, 24, 48, 72, 96, 120, and 168 h postdose. Feces and urine were collected predose (feces within 48 h and urine within 24 h prior to dosing), 0–24 h (urine from 0–12 and 12–24 h), and then at 24-hour intervals up to 240 h postdose or until a discharge criterion was met. […] These 2 participants continued with at-home fecal sample collections. One participant provided fecal samples until Day 13 (264–288 h interval) and one participant provided fecal samples until Day 19 (408–432 h interval), after which they met a discharge criterion.
Plasma, whole blood, and urine samples were assayed for mobocertinib, AP32960, and AP32914 concentrations using liquid chromatography-tandem mass spectrometry (Q2 Solutions, Ithaca, New York, USA). The analytical range for each analyte was 0.250 to 500 ng/mL in whole blood and plasma, and 1.00 to 1000 ng/mL in urine. […] Urine and fecal samples were assayed for total radioactivity following the IV dose of [^14C]-mobocertinib in Period 1, and whole blood, plasma, urine, and fecal samples were assayed for total radioactivity following the oral dose of [^14C]-mobocertinib in Period 2 using liquid scintillation counting (LSC; Celerion, Lincoln, Nebraska, USA; LLOQs: Period 1 urine: 0.115–0.118 ng eq/g, feces: 0.720–0.759 ng eq/g; Period 2 whole blood: 87.3–112 ng eq/g, plasma: 116–132 ng eq/mL, urine: 37.8–46.8 ng eq/g, feces: 110–336 ng eq/g across participants). Urine and fecal samples collected in Period 1 that had total radioactivity concentration equivalents below the LLOQ of the Celerion LSC assay were sent to Pharmaron for measurement by AMS (LLOQ: urine: 0.0000253–0.00111 ng eq/g; feces: 0.000404–0.0278 ng eq/g across participants). The LSC and AMS assays were not cross-validated.
PK parameters for analytes in urine and feces were calculated using SAS Version 9.4 and included the cumulative amounts and percentages of the administered radioactive dose excreted as [^14C]-mobocertinib, [^14C]-AP32960, and [^14C]-AP32914 in urine and feces following IV dosing in Period 1 and oral dosing in Period 2. Renal clearance (CLR) was calculated as the cumulative amount of radiolabeled mobocertinib, AP32960, or AP32914 recovered in urine divided by the plasma AUC to the time of the last common time point at which an analyte was quantifiable in both urine and plasma for individual participants (AUCCLR) following oral dosing of [^14C]-mobocertinib in Period 2. Mass balance was defined as the percentage of total radioactivity recovered in urine and feces combined relative to the total amount of the administered radioactive dose.

Data set [4] relates to platinum-pretreated EGFRex20ins mutation positive locally advanced or metastatic NSCLC. The arrangement: method as in PMID 34647988. The following applies: 114 patients, mobocertinib 160 mg orally qd; cited from earlier work.
[5] abbreviates: Period 2, oral solution 160 mg (~100 µCi) [14C]-mobocertinib, geometric mean.

With `C=CC(=O)Nc1cc(Nc2ncc(C(=O)OC(C)C)c(-c3cn(C)c4ccccc34)n2)c(OC)cc1N(C)CCN(C)C` [Mobocertinib], in data set [1], the “primary endpoint of phase 3 study” value is “not met”. Moreover, the “radioactive dose recovered in urine as mobocertinib, AP32960 and AP32914 combined” value in data set [2] (male, human, in vivo, po) is recorded as 1.13%. Moreover, the CL renal in data set [2] (male, human, in vivo, po, 160 mg) is 11 mL/min. For the same compound, in data set [3] (male, human, in vivo, po), the “administered radioactive dose unaccounted for” value is on record as “Approximately 20%”, the “cumulative percentage of the radioactive dose recovered in feces (total radioactivity)” value came to 76.0% and the “cumulative percentage of the radioactive dose recovered in urine (total radioactivity)” value is given as 3.57%. In data set [4], the “median duration of response” value is 17.5 months, the median overall survival is on record as 24.0 months, the median progression-free survival is 7.3 months and the “objective response rate per independent-review committee” value is listed as 28%.
As to [^14C]-mobocertinib, in data set [2] (Period 2, oral solution 160 mg [14C]-mobocertinib), the “radioactive dose recovered in urine as mobocertinib, AP32960 and AP32914 combined” value came to 1.13%. Also, the “total oral radioactive dose recovered in urine as analyte” value in data set [2] (Period 2, oral solution 160 mg [14C]-mobocertinib, geometric mean) was 0.39%. In data set [3] (setting [5]), the “cumulative percentage of the radioactive dose recovered in feces (total radioactivity)” value is 76.0% and the “cumulative percentage of the radioactive dose recovered in urine (total radioactivity)” value is recorded as 3.57%. Moreover, in data set [3] (Period 2, oral solution 160 mg (~100 µCi) [14C]-mobocertinib, geometric mean, 432-hour collection interval), the “cumulative percentage of the radioactive dose recovered in urine and feces combined” value is recorded as 79.6%.
